# From patent US20190117675A1, “Compositions And Methods To Treat And/Or Prevent Vision Disorders Of The Lens Of The Eye” (Helix Holding Company, priority 2014, published 2019)
# “Also recorded” adds a separate entry of the source.
# Key:
# [1] = tested on: aA-crystallin-Y118D and aB-crystallin-R120G; experiment: Dissolving of accumulated crystal protein in cells carrying two crystallin mutant plasmids; type: cell-based; conditions: 10 uM, compared with 1% DMSO solution
# Experimental: FIG. 13. Two mutant crystal proteins were introduced into cells. The accumulated crystal protein were treated by adding different agents.
# Cyclopentanoperhy drophenanthrene compounds of the present invention refers to a compound containing cyclopentanoperhy drophenanthrene skeleton structure, including its derivatives. After the two crystal protein mutant plasmid aA-crystallin-Y118D and aB-crystallin-R120G were introduced into cells, we investigated the lanosterol and its derivatives as well as cholesterol (Cholesterol) for their effects on intracellular accumulation of crystal protein. Not all cyclopentanoperhy drophenanthrene compound have the same effect.
# [2] = biological target: T1, αB-crystallin R120G mutant (Homo sapiens, UniProt P02511, R120G); experiment: Negative-stain EM of aggregates treated with sterol in liposome; type: biochemical; conditions: negatively stained EM
# T1 construct: made in house
# T1 sequence (P02511 1-175 R120G): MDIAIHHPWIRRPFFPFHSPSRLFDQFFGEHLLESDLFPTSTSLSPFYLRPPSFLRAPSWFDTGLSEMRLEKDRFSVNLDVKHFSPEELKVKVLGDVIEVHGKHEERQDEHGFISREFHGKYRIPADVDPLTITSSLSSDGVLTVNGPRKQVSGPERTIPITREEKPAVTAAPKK
# Experimental: Representative negatively stained EM pictures of the aggregates of αB-crystallin R120G mutant treated by liposome, lanosterol in liposome and cholesterol in liposome, respectively. The EM samples were stained by 1.25% uranyl acetate.
# Quantitative analysis was performed by calculating the number of particles with length over 50 nm from six randomly picked viewing field. Each viewing field contained 30-50 particles.
# The aggregates of the WT and mutated αA- and αB-crystallin proteins were obtained by heating the proteins solutions containing 1 M guanidine chloride (ultrapure, Sigma) with a concentration of 5 mg/ml at 60° C. for 48 h. The aggregates of the WT and mutated β- and γ-crystallins were prepared by heating the protein solutions at pH 3 and 37° C. for 48 h. The formation of aggregates was confirmed by turbidity (absorbance at 400 nm) and transmission electron microscope (EM) measurements. The preformed aggregates were resuspended in 20 mM PBS with a final concentration of 0.1 mg/ml (approximately 5 μM). The resuspended aggregates were treated by 50 μM lanosterol or cholesterol in liposomes formed by 50 μM DPPS at 37° C. […] The soluble proteins were determined by centrifuge the protein solutions to separate the supernatant and precipitation fractions. Then the protein concentration in the supernatant was determined by the Bradford method. […]
# [3] = tested on: aggregates of various WT and mutated crystallins; experiment: In vitro protein assay: dissociation of preformed crystallin aggregates (turbidity, soluble protein, EM); type: biochemical; conditions: 37° C.
# Experimental: Evaluation of the effect of lanosterol on the dissolution of crystallin aggregates by turbidity. Crystallin aggregates were formed by incubating 5mgml21 protein solution at 60° C. for 2 h (α-crystallins) or 37° C. for 48 h (β- and γ-crystallins) in the presence of 1M guanidine chloride. The preformed aggregates were re-suspended in PBS at a final protein concentration of 0.2 mg/ml and were treated with 500 μM sterols in 500 μM DPPC liposome and incubated at 37° C. for 24 h. Aggregates treated with 500 μM DPPC liposome only were used as the controls.
# The α-crystallin aggregates were formed by incubating 5 mg/ml protein solutions at 60° C. for 48 h in the presence of 1 M guanidine chloride. The β- and γ-crystallin aggregates were prepared by incubating the protein solutions at 37° C. and pH 3 for 48 h. The preformed aggregates were re-suspended in PBS with a final protein concentration of 0.1 mg/ml. The re-suspended aggregates were treated by 50 μM sterols in 50 μM DPPS liposome and incubated at 37° C. for 144 h. The aggregates treated by 50 μM DPPS liposome were used as the controls. The supernatant and precipitation fractions were separated by centrifugation. The protein concentrations in the supernatant fraction were determined by absorbance at 280 nm and the percentages of the soluble proteins were calculated from three independent repetitions.
# The recombinant his-tagged WT and mutated β- and γ-crystallin proteins were overexpressed in E. coli Rosetta and purified by Ni-NTA affinity column followed by gel filtration chromatography using the same protocol as those described elsewhere 13,14,16,18. The overexpression and purification of the non-tagged αA- and αB-crystallins were performed as described previously 19. The purity of the proteins were estimated to be above 95% as evaluated by one homogeneous band on 12.5% SDS-PAGE, 10% native-PAGE and a single peak in the size-exclusion chromatographyprofile. The protein concentration was determined according to the Bradford method by using BSA as the standard 20. All protein samples were prepared in 20 mM PBS buffer containing 150 mM NaCl, 1 mM EDTA and 1 mM DTT.
# The aggregates of the WT and mutated αA- and αB-crystallin proteins were obtained by heating the proteins solutions containing 1 M guanidine chloride (ultrapure, Sigma) with a concentration of 5 mg/ml at 60° C. for 48 h. The aggregates of the WT and mutated β- and γ-crystallins were prepared by heating the protein solutions at pH 3 and 37° C. for 48 h. The formation of aggregates was confirmed by turbidity (absorbance at 400 nm) and transmission electron microscope (EM) measurements. The preformed aggregates were resuspended in 20 mM PBS with a final concentration of 0.1 mg/ml (approximately 5 μM). The resuspended aggregates were treated by 50 μM lanosterol or cholesterol in liposomes formed by 50 μM DPPS at 37° C. After 72 h treatment, the protein solutions were used for negative-stained EM observations. After 144 h incubation, the protein solutions were used for turbidity measurements and determinations of protein concentrations in the soluble fractions. The soluble proteins were determined by centrifuge the protein solutions to separate the supernatant and precipitation fractions. Then the protein concentration in the supernatant was determined by the Bradford method. The EM samples were prepared by depositing the protein solutions onto a freshly glow-discharged carbon coated copper grid. […]
# [4] = tested on: various cataract-causing crystallin mutants; experiment: Aggresome / intracellular aggregate formation of crystallin mutants in transfected cells (confocal microscopy); type: cell-based; conditions: 0-40 μM sterols in 2% DMSO, 2 h treatment then 12 h culture; lanosterol effect dose-dependent
# Experimental: The effect of lanosterol or cholesterol on the aggresome formation of various crystallins was studied by transfecting the cells using plasmids containing various crystallin genes. The cells were cultivated for 24 h to enable efficient protein expression and aggresome formation. Then the cells were treated with 0-40 μM sterols in 2% DMSO. The cells treated with 2% DMSO were used as the control. After treatment for 2 h, the cells were moved to fresh DMEM medium containing 10% fetal bovine serum and further cultivated for 12 h. Then the cells were used for microscopy analysis.
# The microscopy samples were prepared by washing the slips by phosphate buffered saline (PBS) three times. The cells were fixed with 4% paraformaldehyde for 40 min followed by three times washing with PBS. The cells were permeabilized with 0.1% Triton X-100 (Sigma) in PBS for 10 min and blocked with 5% normal goat serum in PBS for 1 h at 37° C. Immunostaining was carried out by adding mouse anti-Flag antibody (1:500) or anti-p62 antibody (1:200) in PBS buffer containing 5% normal goat serum and cultivated for 1 h at 37° C. Then the slips were washed three times with PBS, and further incubated with Alexa 649-conjugated goat anti-mouse IgG (1:250) for 1 h at ambient temperature. The nuclei were counterstained with Hoechst 33342. The mounted cells were analyzed using a Carl Zeiss LSM 710 confocal microscope.
structure (smiles),measurement,setting,value
CC(C)CCC[C@@H](C)[C@H]1CC[C@H]2C3=CC[C@H]4C[C@@H](O)CC[C@]4(C)[C@H]3CC[C@]12C [5α-cholest-7-en-3β-ol],dissolving of accumulated crystal protein,[1],significant dissolving of the accumulated crystal protein
same,dissolving of accumulated crystal protein,[1]; listed as 5a-cholest-7-en-3β-ol,significantly dissolve accumulated crystals protein
"CC(C)CCC[C@@H](C)[C@H]1CC[C@H]2[C@@H]3CC=C4C[C@@H](O)CC[C@]4(C)[C@H]3CC[C@]12C [Cholesterol, reference compound]",dissociation of aggregates formed by αB-crystallin R120G mutant (number of particles with length over 50 nm),[2],not
same,dissolving of accumulated crystal protein,[1],cannot effectively dissolve
same,dissolution of crystallin aggregates by turbidity,"[3]; 500 μM sterols in 500 μM DPPC liposome, 24 h, 0.2 mg/ml protein",could not
same,dissociation of aggregates of various WT and mutated crystallins,"[3]; in vitro protein assay, 50 μM sterol in 50 μM DPPS liposome",could not and not
same,intracellular aggregation of various cataract-causing crystallin mutants,[4],did not affect the formation of intracellular aggregates
CC(C)=CCC[C@@H](C)[C@H]1CC[C@@]2(C)[C@@H]3CC[C@H]4C(C)(C)[C@@H](O)CC[C@]4(C)C3=CC[C@]12C [Parkeol],dissolving of accumulated crystal protein,[1],significant dissolving of the accumulated crystal protein
same,dissolving of accumulated crystal protein,[1]; listed as parkeol,significantly dissolve accumulated crystals protein
"CC(C)=CCC[C@@H](C)[C@H]1CC[C@H]2C3=C(CC[C@]12C)[C@@]1(C)CC[C@H](O)C[C@@H]1CC3 [Zymosterol, 5α-Cholesta-8,24-dien-3β-ol]",dissolving of accumulated crystal protein,[1],significant dissolving of the accumulated crystal protein
same,dissolving of accumulated crystal protein,[1]; listed as zymosterol,significantly dissolve accumulated crystals protein
CC(C)[C@@H](C)/C=C/[C@@H](C)[C@H]1CC[C@H]2C3=CC=C4C[C@@H](O)CC[C@]4(C)[C@H]3CC[C@]12C [ergosterol],dissolving of accumulated crystal protein,[1],significantly dissolve accumulated crystals protein; also recorded: significant dissolving of the accumulated crystal protein
CC(C)CCC[C@@H](C)[C@H]1CC[C@H]2[C@@H]3CC[C@H]4C[C@@H](O)CC[C@]4(C)[C@H]3CC[C@]12C [β-cholestanol],dissolving of accumulated crystal protein,[1],significantly dissolve accumulated crystals protein; also recorded: significant dissolving of the accumulated crystal protein
